Converted amounts (≈) assume the structure as drawn. Read-outs that look alike come from different tables or passages of the source. A value given as a limit tells only on which side of the number the result lay.

One data set is described as follows: physchem. Conditions: 66% aqueous dimethylformamide.
The test system of data set [1] is Candida albicans. As to the kind of experiment: In vivo protective activity in mice against Candida albicans, single dose one hour after infection. Set-up: species or system CF 1 mice. Conditions: read-out: PD50. The method, then: (§1) The in vivo protective activity of the antibiotic products in mice (Carworth farm CF 1 mice, each weighing about 20 g.) against Candida albicans was determined. The antibiotic was administered by the stated route in an aqueous vehicle containing 0.5% carboxymethyl cellulose and in two doses. One dose was administered shortly before intravenous infection with a lethal dose of Candida albicans and the other dose was administered 4 hours after infection. Most of the unprotected control mice died within 24 to 48 hours after infection. The survival rate was determined at the end of 24 and 48 hours and from this using standard procedures the PD50 values were determined.
The PD50 values for antibiotics 67-121A, 67-121B and 67-121C using CF 1 mice were determined using essentially the above described method, with the exception that the antibiotic was administered as a single dose one hour after infection with Candida albicans.
The PD50 values were determined on survivors 72 hours after infection. Of the untreated, infected control mice, 80% died within 24 hours and 100% within 48 hours.

Data set [2] can be described thus: Acute toxicity in male CF 1 mice. Conditions: mouse, in vivo. How it is done:
Similarly, in another series of tests the acute toxicity of antibiotics 67-121A, 67-121B and 67121C were determined in male CF 1 mice.

For a further data set, the system named is Cryotococcus. As to the kind of experiment: In vitro antifungal activity, MIC by tube dilution. The data set is classed as cell-based. Conditions: single strain; same conditions (48 hours). How it is done: (§2) For reference, data on candicidin are also given. The quoted minimal inhibitory concentrations (MIC) were obtained by conventional tube dilution techniques using Sabouraud's dextrose broth.
(§3) As representative of the component antibiotics, antibiotic 67-121A and antibiotic 67-121C were tested in the same manner as the complex. Antibiotic 67-121A gave MIC values of from less than 0.01 up to 0.03 meg/ml. against 18 strains of Candida albicans, while antibiotic 67-121C gave MIC values of 0.05 to 0.3 meg/ml. against 9 strains of Candida albicans after incubation times of 48 hours. Further testing of antibiotic 67-121C under the same conditions gave MIC values of 0.3 meg/ml. against two strains of Torulopsis and a single strain of Cryotococcus.

A further data set deals with Torulopsis. As to the kind of experiment: In vitro antifungal activity, MIC by tube dilution. The data set is classed as cell-based. Conditions: two strains of Torulopsis; same conditions (48 hours). The method, then: as §2, §3
The nature of the next data set: pKa. Conditions: 66% aqueous dimethylformamide, 66% aqueous dimethyl formamide.
A further data set deals with mice. Put plainly: Acute toxicity in mice. Type of data set: in vivo. The method, then: The acute toxicity of the antibiotic 67-121 complex in mice was determined via intraperitoneal (I.P.) and subcutaneous (S.C.) administration. For comparison, the values of candicidin were determined.
Data set [3] relates to Candida albicans. As to the kind of experiment: In vivo protective activity in mice against lethal Candida albicans infection, two doses. Set-up: species or system mice (Carworth farm CF 1). Conditions: survivors 48 hours after infection. How it is done: as §1
The results obtained for the Antibiotic 67-121 complex are given in Table 5 together with data for candicidin (for comparison purposes). The PD50 values were determined on survivors 48 hours after infection.

For the next data set, the system named is Terulopsis glabrata. As to the kind of experiment: In vitro antifungal activity, MIC by tube dilution. Type of data set: cell-based.
Source text: as §2

The next data set deals with Aspergillus niger. Put plainly: In vitro antifungal activity, MIC by tube dilution. The data set is classed as cell-based. Conditions: 72 hrs.
Source text: as §2

Data set [4] has as its system Trichophyton mentagrophytes. As to the kind of experiment: In vitro antifungal activity, MIC by tube dilution. Type of data set: cell-based. Conditions: 72 hrs.
Source text: as §2

The test system of the next data set is Trichophyton soudanese. As to the kind of experiment: In vitro antifungal activity, MIC by tube dilution. Type of data set: cell-based. Conditions: strain 2; 72 hrs.
Source text: as §2

Data set [5] concerns Candida albicans. Put plainly: In vitro antifungal activity, MIC by tube dilution (Sabouraud's dextrose broth). The data set is classed as cell-based. The method, then:
as §2, §3

[6] abbreviates: Oral, single dose one hour after infection, survivors 72 hours after infection.
Where [7] appears, read: sc, Subcutaneous, single dose one hour after infection, survivors 72 hours after infection.

For the compound `CNc1ccc(C(=O)CC(O)CCC(C)C2OC(=O)CC(O)CC(O)CC(O)CC(O)CC(O)CC(O)CC3(O)CC(O)C(C(=O)O)C(CC(OC4OC(C)C(OC5OC(CO)C(O)C(O)C5O)C(N)C4O)C=CC=CC=CC=CC=CC=CC=CC2C)O3)cc1` (centres unmarked) [Antibiotic 67-121C], the values for the pKa in “physchem” (pka (COO^-)) and in the data set “physchem” (pka (NH3^+)) were 6 and 9, respectively. Further, the ED50 in the data set with Candida albicans [1] (setting [6]) worked out at 1.5 mg/kg; in the data set on Candida albicans [1] (setting [7]) it was 2.1 mg/kg. Further, the LD50 in data set [2] (ip) worked out at 6 mg/kg. In addition, the MIC against Cryotococcus and in the data set on Torulopsis was 0.3 mg/L (≈ 0.232 µM) throughout.

As to `CNc1ccc(C(=O)CC(O)CCC(C)C2OC(=O)CC(O)CC(O)CC(O)CC(O)CC(O)CC(O)CC3(O)CC(O)C(C(=O)O)C(CC(OC4OC(C)C(O)C(N)C4O)C=CC=CC=CC=CC=CC=CC=CC2C)O3)cc1` (centres unmarked) [Antibiotic 67-121A], the pKa amounted to 6 in “pKa” (pka (COO^-)) and 9 in “pKa” (pka (NH3^+)). In addition, the ED50 worked out at 1.5 mg/kg with Candida albicans [1] (po, 72 h) and 2.5 mg/kg with Candida albicans [1] (sc, 72 h). Also, the LD50 in [2] (ip, I.P.) was 2.4 mg/kg; in [2] (sc, S.C.), over 50 mg/kg; in data set [2] (Oral), over 50 mg/kg.

Regarding Candicidin, the LD50 in the data set with mice (I.P.) was 8 to 22 mg/kg; with mice (S.C.), 300 mg/kg. Also, the PD50 in the data set on Candida albicans [3] (Test 1, Oral) came to 25 mg/kg; in the data set with Candida albicans [3] (Test 1, Subcutaneous) it was 5 mg/kg; in the data set with Candida albicans [3] (Test 2, Oral), 5 mg/kg; in the data set on Candida albicans [3] (Test 2, Subcutaneous), 5 mg/kg; in the data set on Candida albicans [3] (Test 3, Subcutaneous), 25 mg/kg; in the data set on Candida albicans [3] (Test 4, Oral), 40 mg/kg. This compound also gave a PD50 in the data set with Candida albicans [3] (Test 4, Subcutaneous) of 2.5 mg/kg. For the same compound, the “Minimum Inhibitory Concentration (M.I.C.)” value in the data set with Terulopsis glabrata (strain 1, 24 hrs.) amounted to 0.03 meg/ml; in the data set on Terulopsis glabrata (strain 1, 48 hrs.), 0.3 meg/ml; in the data set on Terulopsis glabrata (strain 2, 24 hrs.), 0.03 meg/ml; in the data set on Terulopsis glabrata (strain 2, 48 hrs.) it was 0.08 meg/ml; with Terulopsis glabrata (strain 3, 24 hrs.), 0.03 meg/ml; in the data set with Terulopsis glabrata (strain 3, 48 hrs.) it was 0.08 meg/ml. Moreover, the “Minimum Inhibitory Concentration (M.I.C.)” value in the data set with Terulopsis glabrata (strain 16, 24 hrs.) was found to be 0.03 meg/ml; in the data set with Terulopsis glabrata (strain 16, 48 hrs.), 0.3 meg/ml; in the data set on Terulopsis glabrata (strain 17, 24 hrs.) it was 0.03 meg/ml; with Terulopsis glabrata (strain 17, 48 hrs.) it was 0.08 meg/ml; with Aspergillus niger, 7.5 meg/ml; in data set [4] (strain 1A) it was 17.5 meg/ml. In addition, the “Minimum Inhibitory Concentration (M.I.C.)” value worked out at 25 meg/ml in data set [4] (strain 17); 25 meg/ml with Trichophyton soudanese; 0.8 meg/ml in the data set on Candida albicans [5] (strain 401, 24 hrs.); 3.0 meg/ml with Candida albicans [5] (strain 401, 48 hrs.); 0.03 meg/ml with Candida albicans [5] (strain 402, 24 hrs.); 0.08 meg/ml with Candida albicans [5] (strain 402, 48 hrs.). Besides, the “Minimum Inhibitory Concentration (M.I.C.)” value in the data set with Candida albicans [5] (strain 403, 24 hrs.) is recorded as 0.03 meg/ml; in the data set on Candida albicans [5] (strain 403, 48 hrs.), 0.08 meg/ml; with Candida albicans [5] (strain 404, 24 hrs.), 0.8 meg/ml; in the data set on Candida albicans [5] (strain 404, 48 hrs.), 3.0 meg/ml; with Candida albicans [5] (strain 406, 24 hrs.) it was 0.03 meg/ml; in the data set on Candida albicans [5] (strain 406, 48 hrs.), 0.08 meg/ml. In addition, the “Minimum Inhibitory Concentration (M.I.C.)” value came to 3.0 meg/ml in the data set with Candida albicans [5] (strain 420, 24 hrs.) and 7.5 meg/ml with Candida albicans [5] (strain 420, 48 hrs.).

As to `CC1C=CC=CC=CC=CC=CC=CC=CC(OC2OC(C)C(O)C(N)C2O)CC2OC(O)(CC(O)CC(O)CC(O)CC(O)CC(O)CC(O)CC(=O)OC1C(C)CCC(O)CC(=O)c1ccc(N)cc1)CC(O)C2C(=O)O` (centres unmarked) [Antibiotic 67-121B], the values for the pKa in “physchem” (pka (COO^-)) and in the data set “physchem” (pka (NH3^+)) were 6.3 and 9, respectively. Moreover, the ED50 stood at 18 mg/kg in the data set with Candida albicans [1] (setting [6]) and 15 mg/kg in the data set on Candida albicans [1] (setting [7]). The LD50 is 6 mg/kg in data set [2] (ip), over 50 mg/kg in [2] (po) and over 50 mg/kg in data set [2] (sc).
